# Experimental data: patent US20240287089A1, “Preparation and Uses of 7-Azaindenoisoquinolines” (Purdue Research Foundation, priority 0001, published 2024)
# Read-outs that look alike come from different tables or passages of the source.
# Assays:
# [1] = mouse, 6 h, 1 μM
# Experimental: (§3) Analysis of Plasma Protein Binding and Stability in Human and Mouse Blood Plasma by Equilibrium Dialysis. Frozen plasma (stored at −80° C.) was thawed immediately in a 37° C. water bath. The working solutions of test compound and control compound were prepared in DMSO at 200 μM concentration, and the working solutions were spiked into plasma. The final concentration of compound was 1 μM. The final concentration of DMSO was 0.5%. Ketoconazole was used as positive control in the assay. The dialysis membranes were soaked in ultrapure water for 60 min to separate strips, then in 20% ethanol for 20 min, and then finally in dialysis buffer for 20 min. For equilibrium dialysis, each cell contained plasma sample (150 μL) and was dialyzed against an equal volume of dialysis buffer (PBS). The assay was performed in duplicate. The dialysis plate was sealed and incubated at 37° C. with 5% CO2 at 100 rpm for 6 h. At the end of incubation, samples (50 μL) from both buffer and plasma chambers were transferred to wells of a 96-well plate. Plasma (50 μL) was added to each buffer sample and an equal volume of PBS was added to the collected plasma sample. Cold acetonitrile (400 μL) containing internal standards (IS, 100 nM alprazolam, 200 nM labetalol, 200 nM imipramine and 2 μM ketoprofen) was added to precipitate protein and release compounds. Samples were vortexed for 2 min and centrifuged for 30 min at 3,220 g. An aliquot (100 μL) of the supernatant was diluted with ultra-pure H2O (100 μL), and the mixture was used for LC-MS/MS analysis. For stability determination in plasma, a spiked plasma sample (50 μL) was transferred to a new plate and incubated at 37° C., 5% CO2 for 0 and 6 h. At designated time points, PBS (50 μL) was added and mixed thoroughly, followed by the addition of room temperature quench solution [400 μL of acetonitrile containing internal standards (IS, 100 nM alprazolam, 200 nM labetalol, 200 nM imipramine and 2 μM ketoprofen)] to precipitate protein and release compounds. Samples were vortexed for 2 min and centrifuged for 30 min at 3,220 g. An aliquot (400 μL) of the supernatant was diluted by ultra-pure H2O, and the mixture was used for LC-MS/MS analysis. The concentrations of test compounds in the buffer and plasma chambers were determined from peak area ratios.
# Caco-2 cells = experiment: Caco-2 permeability; assay type: in vitro ADME
# Experimental: Caco-2 Permeability Studies. The Caco-2 plate was removed from the incubator and washed twice with pre-warmed HBSS (10 mM HEPES, pH 7.4), and then incubated at 37° C. for 30 min. The stock solutions of controls compounds were diluted in DMSO to get 1 mM solutions and then diluted with HBSS (10 mM HEPES, pH 7.4) to get 5 μM working solutions. The stock solutions of the test compounds were diluted in DMSO to get 1 mM solutions and then diluted with HBSS (10 mM HEPES, pH 7.4) to get 5 μM working solutions. The final concentration of DMSO in the incubation system was 0.5%. To determine the rate of drug transport in the apical to basolateral direction, 75 μL of 5 μM working solutions of test compounds was added to the Transwell insert (apical compartment) and the wells in the receiver plate (basolateral compartment) were filled with 235 μL of HBSS (10 mM HEPES, pH 7.4). To determine the rate of drug transport in the basolateral to apical direction, 235 μL of 5 μM working solutions of test compounds were to the receiver plate wells (basolateral compartment) and then the Transwell inserts (apical compartment) were filled with 75 μL of HBSS (10 mM HEPES, pH 7.4). Time 0 samples were prepared by transferring 50 μL of 5 μM working solution to wells of the 96-deepwell plate, followed by the addition of 200 μL cold methanol containing appropriate internal standards (IS). The plates were incubated at 37° C. for 2 h. […] An aliquot of 100 μL of the supernatant was mixed with an appropriate volume of ultra-pure water before LC-MS/MS analysis. To determine the Lucifer Yellow leakage after 2 h transport period, stock solution of Lucifer yellow was prepared in ultra-pure water and diluted with HBSS (10 mM HEPES, pH 7.4) to reach the final concentration of 100 μM and then 100 μL of the Lucifer yellow solution was added to each Transwell insert (apical compartment), followed by filling the wells in the receiver plate (basolateral compartment) with 300 μL of HBSS (10 mM HEPES, pH 7.4). The plates were incubated at 37° C. for 30 minutes. Samples (80 μL) were removed directly from the apical and basolateral wells (using the basolateral access holes) and transferred to wells of new 96 wells plates.
# in vivo [2] = details: male, CD1, mouse, iv, 20 mg/kg
# Experimental: Brain Penetration Studies. […] The concentrations were determined by LC-MS/MS with direct measurement of the plasma samples. The brain tissue was homogenized with water using a 3:1 ratio of water (mL) to brain (g) before determination of the concentrations (ng/mL) in the brain homogenates, and the homogenate values then were multiplied by a factor of 4 to obtain the brain concentrations (ng/g).
# γ-H2AX [3] = experiment: Western blot of RS4;11 tumor xenograft tissue; assay type: in vivo, human
# in vivo [4] = assay type: in vivo
# HCT-116 (Colon) = experiment: NCI-60 cytotoxicity assay; assay type: cell-based, human; details: Colon HCT-116, 48 h, read-out: Cytotoxicity GI50
# Procedure, shortened: (§1)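 Sulforhodamine B staining read-out: percentage growth is plotted against the common logarithm of concentration, from which GI50 is derived. Treatment lasts 48 h at five doses between 100 μM and 10 nM.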
# MCF7 (Breast) = experiment: NCI-60 cytotoxicity assay; assay type: cell-based, human; details: Breast MCF7, 48 h, read-out: Cytotoxicity GI50
# Procedure, shortened: as §1
# HOP-62 (Lung) = experiment: NCI-60 cytotoxicity assay; assay type: cell-based, human; details: Lung HOP-62, 48 h, read-out: Cytotoxicity GI50
# Procedure, shortened: as §1
# DU-145 (Prostate) = experiment: NCI-60 cytotoxicity assay; assay type: cell-based, human; details: Prostate DU-145, 48 h, read-out: Cytotoxicity GI50
# Procedure, shortened: as §1
# UACC-62 (Melanoma) = experiment: NCI-60 cytotoxicity assay; assay type: cell-based, human; details: Melanoma UACC-62, 48 h, read-out: Cytotoxicity GI50
# Procedure, shortened: as §1
# SN12C (Renal) = experiment: NCI-60 cytotoxicity assay; assay type: cell-based, human; details: Renal SN12C, 48 h, read-out: Cytotoxicity GI50
# Procedure, shortened: as §1
# OVCAR-3 (Ovarian) = experiment: NCI-60 cytotoxicity assay; assay type: cell-based, human; details: Ovarian OVCAR-3, 48 h, read-out: Cytotoxicity GI50
# Procedure, shortened: as §1
# SF-539 (CNS) = experiment: NCI-60 cytotoxicity assay; assay type: cell-based; details: Homo sapiens; CNS SF-539, 48 h; read-out: Cytotoxicity GI50
# Procedure, shortened: as §1
# [5] = human, 6 h, 1 μM
# Experimental: as §3
# [6] = Maximum tolerated dose determination in NOD SCID mice; assay type: in vivo; details: QD x 5; for Body Weight %: 7 days after first dose
# Experimental: Maximum Tolerated Dose Determinations. […]. […] Experiments involving 100 mg/kg doses of all three drugs were terminated after one day because of toxicity, while the study involving 50 mg/kg dose of G105 was also halted after one day (FIG. 12). Similarly, the investigation with a 40 mg/kg dose of G105 was discontinued after two days (FIG. 13).
# c-Myc = experiment: Western blot of RS4;11 tumor xenograft tissue; assay type: in vivo, human
# Description: (§2) In several cases, the levels of c-Myc were more greatly depressed at the lower dose level. For examples, see the 9-hour data for G104 in Tables 17 and 18 and the 6-hour data in Table 19. […] Overall, there are many unexpected and unexplained aspects of the data in Tables 17-19, which are highly variable and also highly dependent on cell type. In particular, drug-induced increases in c-Myc expression relative to control and the larger changes in c-Myc expression seen at lower vs. higher doses are counterintuitive and unexplained.
# NCI-60 cancer cell lines = experiment: NCI-60 cytotoxicity assay, MGM; assay type: cell-based; details: Homo sapiens; read-out: MGM (average GI50 across NCI-60 panel)
# Procedure, shortened: as §1
# γ-H2AX [7] = experiment: Western blot of MOLT-4 tumor xenograft tissue; assay type: in vivo, human
# Description: as §2
# [8] = human, 1 μM
# Experimental: as §3
compound,measurement,setting,value
"COc1cc2c3c(n(CCCNCCO)c(=O)c2cc1OC)-c1nc2c(cc1C3=O)OCO2 [G105, 6-(3-((2-Hydroxyethyl)amino)propyl)-2,3-dimethoxy-5H-[1,3]dioxolo[4″,5″:5′,6′]pyrido[3′,2′:4,5]cyclopenta[1,2-c]isoquinoline-5,12(6H)-dione]",% Recovery,[1],90.43%
same,% Bound,[1]; plasma,79.41%
same,Efflux Ratio,Caco-2 cells; Caco-2,7.60
same,Recovery (%)AP-BL,Caco-2 cells; Caco-2,75.07%
same,Recovery (%)BL-AP,Caco-2 cells; Caco-2,95.77%
same,Papp (A→B),"Caco-2 cells; Caco-2, 5 μM, 2 h","2.39 10^−6, cm/s"
same,Papp (B→A),"Caco-2 cells; Caco-2, 5 μM, 2 h","18.16 10^−6, cm/s"
same,Vd,in vivo [2],29 L/kg
same,"γ-H2AX/GAPDH, % Relative to Vehicle","γ-H2AX [3]; RS4;11, IV 10 mg/kg, 3 h",67.00 ± 2.90%
same,"γ-H2AX/GAPDH, % Relative to Vehicle","γ-H2AX [3]; RS4;11, IV 10 mg/kg, 9 h",166.37 ± 40.45%
same,"γ-H2AX/GAPDH, % Relative to Vehicle","γ-H2AX [3]; RS4;11, IV 20 mg/kg, 3 h",219.29 ± 82.49%
same,"γ-H2AX/GAPDH, % Relative to Vehicle","γ-H2AX [3]; RS4;11, IV 20 mg/kg, 9 h",540.94 ± 97.90%
same,Mean Tumor/Plasma Ratio,"in vivo [4]; RS4;11, 3 h, IV 10 mg/kg",62.3 ± 17.7
same,Mean Tumor/Plasma Ratio,"in vivo [4]; RS4;11, 3 h, IV 20 mg/kg",111 ± 18
same,Mean Tumor/Plasma Ratio,"in vivo [4]; RS4;11, 9 h, IV 10 mg/kg",185 ± 25
same,Mean Tumor/Plasma Ratio,"in vivo [4]; RS4;11, 9 h, IV 20 mg/kg",383 ± 183
same,GI50,HCT-116 (Colon),1.25 µM
same,GI50,HCT-116 (Colon); Homo sapiens,1.25 µM
same,GI50,MCF7 (Breast),0.26 µM
same,GI50,MCF7 (Breast); Homo sapiens,0.26 µM
same,GI50,HOP-62 (Lung); Homo sapiens,0.42 µM
same,GI50,HOP-62 (Lung),0.42 µM
same,GI50,DU-145 (Prostate); Homo sapiens,2.71 µM
same,GI50,DU-145 (Prostate),2.71 µM
same,GI50,UACC-62 (Melanoma); Homo sapiens,2.38 µM
same,GI50,UACC-62 (Melanoma),2.38 µM
same,GI50,SN12C (Renal); Homo sapiens,3.94 µM
same,GI50,SN12C (Renal),3.94 µM
same,GI50,OVCAR-3 (Ovarian); Homo sapiens,5.65 µM
same,GI50,OVCAR-3 (Ovarian),5.65 µM
same,GI50,SF-539 (CNS),1 µM
same,% Recovery,[5],99.38%
same,% Bound,[5]; plasma,80.88%
same,Body Weight %,[6]; 5 mg/Kg IV,97.2%
same,Body Weight %,[6]; 10 mg/Kg IV,95.5%
same,Body Weight %,[6]; 15 mg/Kg IV,79.2%
same,Body Weight %,[6]; 20 mg/Kg IV,82%
same,Body Weight %,[6]; 30 mg/Kg IV,74.7%
same,Maximum tolerated dose (MTD),"[6]; NOD SCID mice, IV, body weight % ≥80%",20 mg/kg
same,"c-Myc/GAPDH, % Relative to Vehicle","c-Myc; RS4;11, IV 10 mg/kg, 3 h",102.74 ± 3.45%
same,"c-Myc/GAPDH, % Relative to Vehicle","c-Myc; RS4;11, IV 10 mg/kg, 9 h",74.98 ± 3.52%
same,"c-Myc/GAPDH, % Relative to Vehicle","c-Myc; RS4;11, IV 20 mg/kg, 3 h",100.30 ± 16.76%
same,"c-Myc/GAPDH, % Relative to Vehicle","c-Myc; RS4;11, IV 20 mg/kg, 9 h",80.45 ± 3.93%
same,GI50,NCI-60 cancer cell lines,2.95 µM
same,"γ-H2AX/GAPDH, % Relative to Vehicle","γ-H2AX [7]; MOLT-4, IV 10 mg/kg, 3 h",60.98 ± 8.93%
same,"γ-H2AX/GAPDH, % Relative to Vehicle","γ-H2AX [7]; MOLT-4, IV 10 mg/kg, 9 h",172.03 ± 47.41%
same,"γ-H2AX/GAPDH, % Relative to Vehicle","γ-H2AX [7]; MOLT-4, IV 20 mg/kg, 3 h",56.62 ± 11.87%
same,"γ-H2AX/GAPDH, % Relative to Vehicle","γ-H2AX [7]; MOLT-4, IV 20 mg/kg, 9 h",109.66 ± 28.34%
same,% Stability at 6 hrs,[8],95.42%
